{"source": "paper PMC6017357", "about": "“In Vitro Inhibitory Effects of Synthetic Cannabinoid EAM-2201 on Cytochrome P450 and UDP-Glucuronosyltransferase Enzyme Activities in Human Liver Microsomes” (Molecules : A Journal of Synthetic Chemistry and Natural …, 2018)", "target": "T1, CYP1A2 (Homo sapiens, UniProt P05177)", "T1 construct": "from tissue; host or cells: ultrapooled human liver microsomes", "T1 sequence (P05177 1-516)": "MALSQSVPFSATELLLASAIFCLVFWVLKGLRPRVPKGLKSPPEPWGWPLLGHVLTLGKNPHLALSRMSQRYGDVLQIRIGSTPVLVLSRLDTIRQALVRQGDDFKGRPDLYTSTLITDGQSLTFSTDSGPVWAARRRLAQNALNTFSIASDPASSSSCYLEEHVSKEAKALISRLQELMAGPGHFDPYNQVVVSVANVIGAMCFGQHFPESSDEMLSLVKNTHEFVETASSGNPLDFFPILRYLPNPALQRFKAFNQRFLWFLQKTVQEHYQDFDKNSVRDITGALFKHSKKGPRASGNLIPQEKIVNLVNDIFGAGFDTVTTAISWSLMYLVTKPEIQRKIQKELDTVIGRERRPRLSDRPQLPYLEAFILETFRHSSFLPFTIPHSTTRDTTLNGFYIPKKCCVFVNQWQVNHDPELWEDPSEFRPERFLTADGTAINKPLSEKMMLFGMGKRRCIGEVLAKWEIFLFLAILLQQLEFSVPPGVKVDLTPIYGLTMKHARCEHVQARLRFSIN", "test": "CYP1A2-mediated phenacetin O-deethylation in pooled human liver microsomes", "assay_type": "in vitro ADME", "settings": "up to 50 µM, without 30-min preincubation", "protocol": "The inhibitory potential (IC50 values) of EAM-2201 on CYP1A2, CYP2A6, CYP2C8, CYP2C9, CYP2C19, CYP2D6 and CYP3A4 were evaluated using ultrapooled human liver microsomes and a cocktail of seven CYP substrates followed by LC-tandem mass spectrometry (LC-MS/MS) as previously described. […] Aliquots (5 µL) of the diluted supernatants were analyzed using LC-MS/MS. […]\nThe metabolites formed from CYP substrates were simultaneously quantified using our previously described LC-MS/MS method. […] Quantification was performed by selected reaction monitoring (SRM) of the [M + H]^+ ion and the related product ion for each metabolite: acetaminophen, 152.1 > 110.3; N-desethylamodiaquine, 328.1 > 283.0; 7-hydroxycoumarin, 163.0 > 107.2; 4-hydroxybupropion, 256.1 > 238.0; 4′-hydroxydiclofenac, 312.0 > 231.1; 4′-hydroxy-mephenytoin, 235.1 > 150.1; 1′-hydroxybufuralol, 278.1 > 186.1; 1′-hydroxymidazolam, 341.9 > 324.0; ^13C2,^15N-acetaminophen, 155.1 > 111.2; and d9-1′-hydroxybufuralol, 287.2 > 187.0. […]"}
{"smiles": "CCc1ccc(C(=O)c2cn(CCCCCF)c3ccccc23)c2ccccc12", "note": "[EAM-2201, (4-ethyl-1-naphthalenyl)[1-(5-fluoropentyl)-1H-indol-3-yl]-methanone]", "values": [{"measurement": "inhibition of CYP1A2-mediated phenacetin O-deethylation", "value": "negligibly inhibited"}]}
